Literature values as cited in US20140018438A1, “METHOD OF DESTROYING BACTERIAL BIOFILM USING STERILE INTRAVENOUS OR INTRACAVERNOUS GLYCERIN” (priority 2012, published 2014).

Settings: sterile product for intravenous administration, generally 3% concentration at 80-100 milliliters per hour

For `OCC(O)CO` [Glycerin], the “allergic reactions / safety profile” value is listed as “free of allergic reactions”.
